Source: EP3831399A1, “ANTI-NOROVIRUS AGENT” (DENSO CORPORATION, priority 2018, dated 2020)
Entries after “also recorded” stand apart in the source; their conditions may differ.

What was measured:
Format in all cases: cell-based
feline calicivirus (FCV) = experiment: Virucidal effect in presence of organic material (BSA); details: 1,000 µg/ml
Protocol: • Virus: using feline calicivirus (FCV) as a replacement for norovirus • Used medicine and concentration: 1,000 µg/ml of sodium hypochlorite or coccomyxa sp. KJ strain MGDG preparation • Organic material: using BSA (albumin) 5%
• (1) Feline calicivirus (FCV) was prepared in 2×10^5 PFU/ml. • (2) An MGDG preparation or sodium hypochlorite is prepared at a concentration four times the final assay concentration ([…]). • (3) Bovine serum albumin (BSA) is prepared as an organic material at a concentration four times the final concentration (5%). • (4) Virus fluid: the MGDG preparation or sodium hypochlorite and BSA are mixed at a ratio of 2 : 1 : 1. A sample prepared by adding PBS instead of the MGDG preparation or sodium hypochlorite was used as a control. • (5) After being left at room temperature for 1 minute, 10 minutes, and 60 minutes, 100-fold dilution with PBS is performed. The CRFK cells cultured in a monolayer fashion are added in an amount of 100 µl/culture dish to a 35 mm culture dish, and an infection treatment is performed at room temperature for 1 hour. • (6) A 1% SeaPlaque Agarose-added MEM culture medium is overlaid. • (7) After 2 days, the appeared plaque is immobilized and stained with a crystal violet solution. • (8) The number of plaques is counted under a microscope.

Influenza A virus (IFV) = experiment: Virucidal activity of each MGDG fraction, influenza virus; details: 50 µg/ml, 37°C, 60 minutes; MDCK cell
[1] = tested on: Herpes simplex virus type 2 (HSV-2); experiment: Virucidal activity of each MGDG fraction, herpes simplex virus type 2; details: 50 µg/ml, 37°C, 60 minutes, Vero cell
Protocol: (1) A coccomyxa sp. KJ strain-derived MGDG preparation was subjected to HPLC, and each peak was separated, thereby obtaining five types of MGDG refined products (MGDG1, MGDG2, MGDG3, MGDG4, and MGDG5). Furthermore, the MGDG preparation before separation (containing MGDG1 to MGDG5) was prepared as a mix product. (2) Each sample was mixed with respect to each virus fluid (2×10^5 PFU/ml) so that the final concentration became 50 µg/ml, and the resultant product was left to stand still at 37°C for 60 minutes.
(3) The mixed liquid of (2) is diluted in the MEM culture medium without foetal bovine serum, a culture medium for plaque assay is then overlaid, and culturing is performed at 37°C for 2 to 3 days. (4) After checking appearance of plaques, the cells were immobilized and stained with a neutral red solution, and the number of plaques was measured under a microscope. The virus survival rate of each sample was calculated based on the appearance number of virus appearing in the case of not adding the sample (100%). The virucidal performance of each sample was evaluated from the virus survival rate.

Molecule | inactivation effect in the presence of the organic material, change versus its absence (feline calicivirus (FCV); 5% BSA) | rate of virus inactivation (feline calicivirus (FCV); organic material (BSA) did not exist, one minute) | virucidal (inactivation) activity (virus survival rate) (Influenza A virus (IFV)) | virucidal (inactivation) activity (virus survival rate) [1] | virucidal (inactivation) activity (virus survival rate) ([1]; listed as fifth peak of the KJ strain MGDG preparation)
OCl [sodium hypochlorite] | significantly reduced | 100% | – | – | –
monogalactosyldiacylglycerol in which a constituent fatty acid is C18:3 and C18:2 [MGDG5] | – | – | significant inactivation effect; also recorded: high virucidal activity | significant inactivation effect | high virucidal activity
